In patent US11739098B2 (BRISTOL-MYERS SQUIBB COMPANY, priority 2017, dated 2023):

Assays:
Format in all cases: cell-based
[1] = target: T1, human TLR8 (Homo sapiens, UniProt Q9NR97); assay: TLR8 inhibition reporter assay (HEK-Blue cells, SEAP reporter, R848 stimulation); conditions: HEK-Blue cells overexpressing human TLR8, SEAP reporter, R848 15.9 μM
T1 construct: host or cells: HEK-Blue cells (HEK293-derived reporter line)
T1 sequence (Q9NR97 27-1041): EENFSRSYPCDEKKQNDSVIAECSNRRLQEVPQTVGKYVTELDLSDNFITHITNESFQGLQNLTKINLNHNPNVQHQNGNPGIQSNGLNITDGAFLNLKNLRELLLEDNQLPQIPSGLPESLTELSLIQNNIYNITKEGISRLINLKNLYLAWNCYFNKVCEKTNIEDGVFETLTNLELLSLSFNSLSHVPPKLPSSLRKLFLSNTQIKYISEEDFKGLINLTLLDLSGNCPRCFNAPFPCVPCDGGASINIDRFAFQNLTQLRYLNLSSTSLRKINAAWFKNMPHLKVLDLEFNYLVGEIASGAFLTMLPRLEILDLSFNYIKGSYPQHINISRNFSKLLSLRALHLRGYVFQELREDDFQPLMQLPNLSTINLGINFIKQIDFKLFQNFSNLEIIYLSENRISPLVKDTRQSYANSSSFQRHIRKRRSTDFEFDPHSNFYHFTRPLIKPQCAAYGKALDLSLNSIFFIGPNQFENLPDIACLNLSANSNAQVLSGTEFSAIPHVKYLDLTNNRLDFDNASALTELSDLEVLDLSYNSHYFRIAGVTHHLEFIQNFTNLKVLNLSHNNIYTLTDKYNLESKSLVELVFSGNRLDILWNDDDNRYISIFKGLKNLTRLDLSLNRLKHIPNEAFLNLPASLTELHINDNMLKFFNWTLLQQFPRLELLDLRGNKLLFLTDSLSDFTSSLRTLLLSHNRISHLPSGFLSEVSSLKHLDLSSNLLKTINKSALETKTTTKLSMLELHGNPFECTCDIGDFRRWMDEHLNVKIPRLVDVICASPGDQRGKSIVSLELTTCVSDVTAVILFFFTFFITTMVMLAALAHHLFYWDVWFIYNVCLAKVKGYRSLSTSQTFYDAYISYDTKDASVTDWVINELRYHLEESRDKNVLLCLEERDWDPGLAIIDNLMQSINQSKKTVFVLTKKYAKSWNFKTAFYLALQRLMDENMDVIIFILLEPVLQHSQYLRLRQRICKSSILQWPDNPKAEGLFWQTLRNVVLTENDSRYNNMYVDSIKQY
Method in brief: (§1)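 HEK-Blue cells overexpressing human TLR7, TLR8 or TLR9 (NF-κB/AP-1-driven SEAP) pre-treated 30 min at room temperature with compound (0.05 nM–50 μM), then stimulated with gardiquimod 7.5 μM (TLR7), R848 15.9 μM (TLR8) or ODN2006 5 nM (TLR9). SEAP read colorimetrically after 22 h at 37 °C; % inhibition calculated.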

[2] = target: T2, human TLR7 (Homo sapiens, UniProt Q9NYK1); assay: TLR7 inhibition reporter assay (HEK-Blue cells, SEAP reporter, gardiquimod stimulation); conditions: HEK-Blue cells overexpressing human TLR7, SEAP reporter, gardiquimod 7.5 μM
T2 construct: host or cells: HEK-Blue cells (HEK293-derived reporter line)
T2 sequence (Q9NYK1 27-1049): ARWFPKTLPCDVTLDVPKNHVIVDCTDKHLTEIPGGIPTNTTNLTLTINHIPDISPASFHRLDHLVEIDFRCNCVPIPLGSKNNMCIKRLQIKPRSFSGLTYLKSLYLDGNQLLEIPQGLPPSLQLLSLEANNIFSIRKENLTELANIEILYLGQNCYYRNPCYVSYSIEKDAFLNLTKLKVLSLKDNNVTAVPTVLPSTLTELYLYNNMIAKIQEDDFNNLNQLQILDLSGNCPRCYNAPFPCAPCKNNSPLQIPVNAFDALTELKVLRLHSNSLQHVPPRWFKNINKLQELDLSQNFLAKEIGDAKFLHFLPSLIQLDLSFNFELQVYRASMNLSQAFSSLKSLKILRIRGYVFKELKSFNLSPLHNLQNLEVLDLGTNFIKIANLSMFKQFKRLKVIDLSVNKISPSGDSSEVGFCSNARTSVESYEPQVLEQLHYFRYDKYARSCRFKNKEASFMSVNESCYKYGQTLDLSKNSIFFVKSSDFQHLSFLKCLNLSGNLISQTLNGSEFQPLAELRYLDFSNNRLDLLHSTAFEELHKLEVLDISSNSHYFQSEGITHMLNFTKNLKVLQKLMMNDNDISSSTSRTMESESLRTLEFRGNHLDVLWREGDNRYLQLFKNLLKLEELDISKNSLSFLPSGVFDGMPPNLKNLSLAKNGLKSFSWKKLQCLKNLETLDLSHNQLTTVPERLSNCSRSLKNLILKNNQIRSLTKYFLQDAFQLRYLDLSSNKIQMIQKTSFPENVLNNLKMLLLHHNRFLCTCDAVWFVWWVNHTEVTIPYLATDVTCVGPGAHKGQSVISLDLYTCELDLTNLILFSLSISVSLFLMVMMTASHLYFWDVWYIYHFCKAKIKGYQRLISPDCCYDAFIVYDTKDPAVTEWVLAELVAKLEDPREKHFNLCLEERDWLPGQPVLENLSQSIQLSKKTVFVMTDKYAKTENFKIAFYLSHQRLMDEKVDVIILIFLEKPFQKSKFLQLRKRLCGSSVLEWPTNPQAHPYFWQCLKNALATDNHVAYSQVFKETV
Method in brief: as §1

[3] = target: T3, human TLR9 (Homo sapiens, UniProt Q9NR96); assay: TLR9 inhibition reporter assay (HEK-Blue cells, SEAP reporter, ODN2006 stimulation); conditions: HEK-Blue cells overexpressing human TLR9, SEAP reporter, ODN2006 5 nM
T3 construct: host or cells: HEK-Blue cells (HEK293-derived reporter line)
T3 sequence (Q9NR96 26-1032): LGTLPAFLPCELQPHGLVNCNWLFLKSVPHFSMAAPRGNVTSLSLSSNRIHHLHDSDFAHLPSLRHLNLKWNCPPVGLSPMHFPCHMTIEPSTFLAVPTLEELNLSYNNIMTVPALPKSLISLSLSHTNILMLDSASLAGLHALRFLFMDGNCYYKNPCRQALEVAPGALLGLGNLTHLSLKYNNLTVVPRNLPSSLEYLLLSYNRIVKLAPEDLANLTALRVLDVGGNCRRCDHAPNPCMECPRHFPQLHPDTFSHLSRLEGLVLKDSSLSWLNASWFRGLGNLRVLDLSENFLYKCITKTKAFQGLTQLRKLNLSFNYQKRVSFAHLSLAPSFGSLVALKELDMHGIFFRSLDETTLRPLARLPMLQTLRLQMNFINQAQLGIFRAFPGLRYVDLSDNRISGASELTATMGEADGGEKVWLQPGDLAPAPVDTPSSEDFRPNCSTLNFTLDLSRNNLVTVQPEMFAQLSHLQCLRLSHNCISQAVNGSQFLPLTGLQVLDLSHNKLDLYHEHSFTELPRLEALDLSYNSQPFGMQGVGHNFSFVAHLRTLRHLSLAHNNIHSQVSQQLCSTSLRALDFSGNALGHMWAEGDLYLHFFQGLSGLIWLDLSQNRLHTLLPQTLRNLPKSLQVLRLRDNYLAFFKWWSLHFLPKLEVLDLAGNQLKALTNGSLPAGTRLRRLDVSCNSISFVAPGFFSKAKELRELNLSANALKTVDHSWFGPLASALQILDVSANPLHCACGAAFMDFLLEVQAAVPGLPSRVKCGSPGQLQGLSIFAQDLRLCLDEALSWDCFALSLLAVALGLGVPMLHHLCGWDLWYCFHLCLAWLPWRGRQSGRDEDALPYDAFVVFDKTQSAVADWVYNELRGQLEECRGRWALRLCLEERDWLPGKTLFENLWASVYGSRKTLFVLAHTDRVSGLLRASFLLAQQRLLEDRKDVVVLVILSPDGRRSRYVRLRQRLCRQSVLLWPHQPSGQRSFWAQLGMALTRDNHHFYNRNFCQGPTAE
Method in brief: as §1

SMILES | IC50 [1] | IC50 [2] | IC50 [3]
CC(C)c1c(-c2cccn3ncnc23)[nH]c2ccc(C3CCN(C(=O)CN(C)C)CC3)cc12 [Example 514, 1-(4-(2-([1,2,4]triazolo[1,5-a]pyridin-8-yl)-3-isopropyl-1H-indol-5-yl)piperidin-1-yl)-2-(dimethylamino)ethan-1-one] | 0.1 to 1 µM | 0.1 to 1 µM | 1 to 50 µM
COc1cc(-c2[nH]c3ccc(C4CCNCC4)cc3c2C(C)C)cc2nccn12 [Example 163, 7-(3-isopropyl-5-(piperidin-4-yl)-1H-indol-2-yl)-5-methoxyimidazo[1,2-a]pyridine] | 0.1 to 1 µM | 0.1 to 1 µM | 0.1 to 1 µM
CC(C)c1c(-c2ccc3nc(N)cn3c2)[nH]c2ccc(C3CCNCC3)cc12 [Example 116, 6-(3-isopropyl-5-(piperidin-4-yl)-1H-indol-2-yl)imidazo[1,2-a]pyridin-2-amine] | 0.1 to 1 µM | 0.1 to 1 µM | 1 to 50 µM
Cc1cc(-c2[nH]c3ccc(C4CCN(C(=O)CCN5C[C@H]6CC[C@@H](C5)O6)CC4)cc3c2C(C)C)cn2nnnc12 [Example 622, 3-((1R,5S)-8-oxa-3-azabicyclo[3.2.1]octan-3-yl)-1-(4-(3-isopropyl-2-(8-methyltetrazolo[1,5-a]pyridin-6-yl)-1H-indol-5-yl)piperidin-1-yl)propan-1-one] | < 0.1 µM | < 0.1 µM | 1 to 50 µM
CC(C)c1c(-c2cccn3ncnc23)[nH]c2ccc(C3CCN(CC(=O)N(C)C)CC3)cc12 [Example 362, 2-(4-(2-5 ([1,2,4]triazolo[1,5-a]pyridin-8-yl)-3-isopropyl-1H-indol-5-yl)piperidin-1-yl)-N,N-dimethylacetamide] | 0.1 to 1 µM | 0.1 to 1 µM | 1 to 50 µM
COc1cc(CN(C)C)cc(CN2CCC(c3ccc4[nH]c(-c5ccnc6[nH]ncc56)c(C(C)C)c4c3)CC2)c1O [Example 924, 4-((dimethylamino)methyl)-2-((4-(3-isopropyl-2-(1H-pyrazolo[3,4-b]pyridin-4-yl)-1H-indol-5-yl)piperidin-1-yl)methyl)-6-methoxyphenol] | < 0.1 µM | < 0.1 µM | 0.1 to 1 µM
Cc1cc2cc(-c3[nH]c4ccc(C5CCN(C6COC6)CC5)cc4c3C(C)C)ccn2n1 [Example 726, 5-(3-isopropyl-5-(1-(oxetan-3-yl)piperidin-4-yl)-1H-indol-2-yl)-2-methylpyrazolo[1,5-a]pyridine] | > 3.13 µM | 0.1 to 1 µM | > 50 µM
Cc1cc(-c2[nH]c3ccc(C4CCN(C5COC5)CC4)cc3c2C(C)C)cc2cnnn12 [Example 744, 5-(3-isopropyl-5-(1-(oxetan-3-yl)piperidin-4-yl)-1H-indol-2-yl)-7-methyl-[1,2,3]triazolo[1,5-a]pyridine] | < 0.1 µM | < 0.1 µM | 1 to 50 µM
Cc1c(-c2[nH]c3ccc(C4CCN(CC(=O)N(C)C)CC4)cc3c2C(C)C)ccc2nnnn12 [Example 308, 2-(4-(3-isopropyl-2-(5-methyltetrazolo[1,5-a]pyridin-6-yl)-1H-indol-5-yl)piperidin-1-yl)-N,N-dimethylacetamide] | < 0.1 µM | 0.1 to 1 µM | 1 to 50 µM
CCc1c(C)c(-c2[nH]c3ccc(C4CCN(CC(C)(C)O)CC4)cc3c2C(C)C)cn2ccnc12 [Example 777, 1-(4-(2-(8-ethyl-7-methylimidazo[1,2-a]pyridin-6-yl)-3-isopropyl-1H-indol-5-yl)piperidin-1-yl)-2-methylpropan-2-ol] | < 0.1 µM | < 0.1 µM | 0.1 to 1 µM

Second part, the molecule after the results:

IC50 [1] | IC50 [2] | IC50 [3] | SMILES
< 0.1 µM | < 0.1 µM | 1 to 50 µM | CNC(=O)CN1CCC(c2ccc3[nH]c(-c4cn5ccnc5c(Cl)c4C)c(C(C)C)c3c2)CC1 [Example 414, 2-(4-(2-(8-chloro-7-methylimidazo[1,2-a]pyridin-6-yl)-3-isopropyl-1H-indol-5-yl)piperidin-1-yl)-N-methylacetamide]
< 0.1 µM | < 0.1 µM | 1 to 50 µM | Cc1cc(-c2[nH]c3ccc(C4CCN(C(=O)CN5CCCC5)CC4)cc3c2C(C)C)cn2nnnc12 [Example 470, 1-(4-(3-isopropyl-2-(8-methyltetrazolo[1,5-a]pyridin-6-yl)-1H-indol-5-yl)piperidin-1-yl)-2-(pyrrolidin-1-yl) ethan-1-one]
< 0.1 µM | 0.1 to 1 µM | 0.1 to 1 µM | CCc1c(-c2ccnc3[nH]cc(Cl)c23)[nH]c2ccc(C3CCN(C4CCN(C(C)C)CC4)CC3)cc12 [Example 842, 3-chloro-4-(3-ethyl-5-(1′-isopropyl-[1,4′-bipiperidin]-4-yl)-1H-indol-2-yl)-1H-pyrrolo[2,3-b]pyridine]
< 0.1 µM | < 0.1 µM | 1 to 50 µM | COc1cc(-c2[nH]c3ccc(C4CCN(C(=O)CN(C)C)CC4)cc3c2C(C)C)nn2ncnc12 [Example 460, 2-(dimethylamino)-1-(4-(3-isopropyl-2-(8-methoxy-[1,2,4]triazolo[1,5-b]pyridazin-6-yl)-1H-indol-5-yl)piperidin-1-yl)ethan-1-one]
